“Also recorded” adds a separate entry of the source. Marks after values point to notes of the source that are not given here.
Experiments:
[1] = Safety, DLT, MTD and adverse events in patients with advanced solid tumors or lymphoma (Example 2); format: in vivo
Description: DLT was defined as first course adverse events […] hematologic toxicity. The MTD was defined as one dose level below the dose at which […] of six patients experienced DLT.
Dose reduction by one level was applied for the occurrence of either grade 3 nonhematologic toxicity, grade 4 hematologic toxicity, persistent (≦2 weeks) grade 2 nonhematologic toxicity, or per the investigator's assessment. […] No limitation for the number of dose reductions was chosen.
(§1) At study entry, history, physical examination, laboratory studies (CBC, electrolytes, creatinine, blood urea nitrogen, total and direct bilirubin, ALT, AST, alkaline phosphatase, uric acid, prothrombin time, partial thromboplastin time, and urinalysis), computed tomography scan and chest x-ray and ECG were performed. Clinical assessments, including a physical examination and adverse event evaluation, were conducted at each follow-up. Adverse events were graded by the NCI Common Toxicity Criteria (version 2.0). Computed tomography scans and staging was performed every 6 weeks for the q14-day schedule. Disease-specific staging techniques, such as bone marrow aspirate and biopsy, flow cytometry, cutaneous lesion photography, or bone scan were used as indicated. Response evaluations used the Response Evaluation Criteria in Solid Tumors and the Cheson criteria for lymphoma. Multiple-gated acquisition (MUGA) scans were obtained on the q14-day schedule at base line, before course 2 and at each restaging. Laboratory studies (CBC with differential, chemistry 20, prothrombin time and […] thromboplastin time) were performed on days 1, 3, 5, 7 and repeated weakly.

[2] = system: advanced solid tumors or lymphomas; assay: Response evaluation in patients with advanced solid tumors or lymphoma (Example 2); format: in vivo, human
Protocol: as §1

Nc1ccccc1NC(=O)c1ccc(CNC(=O)OCc2cccnc2)cc1 [SNDX-275, N-(2-aminophenyl) 4-[N-(pyrid-3-yl)methyloxycarbonylaminomethyl]benzamide]
DLTs ([1]; Every 14 days, 2 mg/m^2): 0
No. of Patients With First Course DLT ([1]; Every 14 days, 2 mg/m^2): 0
DLTs ([1]; Every 14 days, 4 mg/m^2): 0
No. of Patients With First Course DLT ([1]; Every 14 days, 4 mg/m^2): 0
No. of Patients With First Course DLT ([1]; Every 14 days, 6 mg/m^2): 1
DLTs ([1]; Every 14 days, 6 mg/m^2, anorexia, nausea, and vomiting): 3†
DLTs ([1]; Every 14 days, 8 mg/m^2): 0
No. of Patients With First Course DLT ([1]; Every 14 days, 8 mg/m^2): 0
No. of Patients With First Course DLT ([1]; Every 14 days, 10 mg/m^2): 1
DLTs ([1]; Every 14 days, 10 mg/m^2, anorexia, nausea, and vomiting): 3†
No. of Patients With First Course DLT ([1]; Every 14 days, 12 mg/m^2): 2
DLTs ([1]; Every 14 days, 12 mg/m^2, anorexia, nausea, vomiting, and fatigue): 7‡
No. of Patients With First Course DLT ([1]; Every day x 28/42 days, 2 mg/m^2, 2 patients): 2
MTD ([1]; daily schedule (once-a-day×28 every 6 weeks), first dose level 2 mg/m^2): exceeded at the first dose level
Abdominal pain: % (All Grades) ([1]; human, in vivo): 7%
Anemia: No. of Patients (All Grades) ([1]; human, in vivo): 8
Anorexia: % (All Grades) ([1]; human, in vivo): 36%
Anorexia: Grade 3 ([1]; human, in vivo): 4
Anorexia: No. of Patients (All Grades) ([1]; human, in vivo): 10
Bilirutin: % (All Grades) ([1]; human, in vivo): 14%
Bilirutin: No. of Patients (All Grades) ([1]; human, in vivo): 4
Chest pain: % (All Grades) ([1]; human, in vivo): 7%
Chest pain: No. of Patients (All Grades) ([1]; human, in vivo): 2
Constipation: % (All Grades) ([1]; human, in vivo): 7%
Constipation: No. of Patients (All Grades) ([1]; human, in vivo): 2
Hypermagnesemia: No. of Patients (All Grades) ([1]; human, in vivo): 2
Hypoalbuminemia: % (All Grades) ([1]; human, in vivo): 64%
Hypoalbuminemia: No. of Patients (All Grades) ([1]; human, in vivo): 18
Hypocalcemia: % (All Grades) ([1]; human, in vivo): 21%
Hypocalcemia: No. of Patients (All Grades) ([1]; human, in vivo): 6
Hypokalemia: % (All Grades) ([1]; human, in vivo): 4%
Hypokalemia: No. of Patients (All Grades) ([1]; human, in vivo): 1
Hyponatremia: % (All Grades) ([1]; human, in vivo): 25%
Hyponatremia: No. of Patients (All Grades) ([1]; human, in vivo): 7
Infection w/o neutropenia: % (All Grades) ([1]; human, in vivo): 7%
Infection w/o neutropenia: Grade 3 ([1]; human, in vivo): 0
Infection w/o neutropenia: No. of Patients (All Grades) ([1]; human, in vivo): 2
Leucopenia: % (All Grades) ([1]; human, in vivo): 21%
Leucopenia: No. of Patients (All Grades) ([1]; human, in vivo): 6
Libido: % (All Grades) ([1]; human, in vivo): 4%
Libido: Grade 3 ([1]; human, in vivo): 0
Libido: No. of Patients (All Grades) ([1]; human, in vivo): 1
Myalgia: Grade 3 ([1]; human, in vivo): 0
Myalgia: No. of Patients (All Grades) ([1]; human, in vivo): 1
Nail changes: % (All Grades) ([1]; human, in vivo): 4%
Nail changes: Grade 3 ([1]; human, in vivo): 0
Nail changes: No. of Patients (All Grades) ([1]; human, in vivo): 1
Nausea: % (All Grades) ([1]; human, in vivo): 64%
Nausea: Grade 3 ([1]; human, in vivo): 4
Nausea: No. of Patients (All Grades) ([1]; human, in vivo): 18
Neurosensory deficits: % (All Grades) ([1]; human, in vivo): 7%
Neurosensory deficits: No. of Patients (All Grades) ([1]; human, in vivo): 2
Sinus Tachycardia: No. of Patients (All Grades) ([1]; human, in vivo): 1
Stomatitis: % (All Grades) ([1]; human, in vivo): 4%
Stomatitis: No. of Patients (All Grades) ([1]; human, in vivo): 1
Sweating: % (All Grades) ([1]; human, in vivo): 4%
Sweating: Grade 3 ([1]; human, in vivo): 0
Sweating: No. of Patients (All Grades) ([1]; human, in vivo): 1
Taste disturbance: % (All Grades) ([1]; human, in vivo): 29%
Taste disturbance: Grade 3 ([1]; human, in vivo): 0
Taste disturbance: No. of Patients (All Grades) ([1]; human, in vivo): 8
tolerability ([1]; human, in vivo, po): intolerable
MTD (and recommended phase II dose) ([1]; q14-day schedule): 10 mg/m^2
SNDX-275-related first course grade 4 adverse events ([1]; q14-day schedule): no SNDX-275-related first course grade 4 adverse events
dose-limiting toxicities ([1]; q14-day schedule): nausea, vomiting, anorexia and fatigue; also recorded: anorexia, nausea, vomiting and fatigue
tolerability ([1]; q14-day schedule): reasonably well-tolerated
Abdominal pain: No. of Patients (All Grades) ([1]; q14-day schedule, first course): 2
Alkaline phosphatase: % (All Grades) ([1]; q14-day schedule, first course): 4%
Alkaline phosphatase: No. of Patients (All Grades) ([1]; q14-day schedule, first course): 1
Allergic reaction: % (All Grades) ([1]; q14-day schedule, first course): 4%
Allergic reaction: Grade 3 ([1]; q14-day schedule, first course): 0
Allergic reaction: No. of Patients (All Grades) ([1]; q14-day schedule, first course): 1
Anemia: % (All Grades) ([1]; q14-day schedule, first course): 29%
Cough: % (All Grades) ([1]; q14-day schedule, first course): 4%
Cough: No. of Patients (All Grades) ([1]; q14-day schedule, first course): 1
Creatinine: % (All Grades) ([1]; q14-day schedule, first course): 7%
Creatinine: No. of Patients (All Grades) ([1]; q14-day schedule, first course): 2
Dehydration: % (All Grades) ([1]; q14-day schedule, first course): 11%
Dehydration: Grade 3 ([1]; q14-day schedule, first course): 0
Dehydration: No. of Patients (All Grades) ([1]; q14-day schedule, first course): 3
Depression: % (All Grades) ([1]; q14-day schedule, first course): 4%
Depression: Grade 3 ([1]; q14-day schedule, first course): 0
Depression: No. of Patients (All Grades) ([1]; q14-day schedule, first course): 1
Diarrhea: % (All Grades) ([1]; q14-day schedule, first course): 7%
Diarrhea: No. of Patients (All Grades) ([1]; q14-day schedule, first course): 2
Dyspepsia: % (All Grades) ([1]; q14-day schedule, first course): 21%
Dyspepsia: No. of Patients (All Grades) ([1]; q14-day schedule, first course): 6
Fatigue: % (All Grades) ([1]; q14-day schedule, first course): 54%
Fatigue: Grade 3 ([1]; q14-day schedule, first course): 1
Fatigue: No. of Patients (All Grades) ([1]; q14-day schedule, first course): 15
Fever: % (All Grades) ([1]; q14-day schedule, first course): 4%
Fever: Grade 3 ([1]; q14-day schedule, first course): 0
Fever: No. of Patients (All Grades) ([1]; q14-day schedule, first course): 1
Flatulence: % (All Grades) ([1]; q14-day schedule, first course): 11%
Flatulence: No. of Patients (All Grades) ([1]; q14-day schedule, first course): 3
GI other: % (All Grades) ([1]; q14-day schedule, first course): 7%
GI other: No. of Patients (All Grades) ([1]; q14-day schedule, first course): 2
Headache: % (All Grades) ([1]; q14-day schedule, first course): 50%
Headache: Grade 3 ([1]; q14-day schedule, first course): 0
Headache: No. of Patients (All Grades) ([1]; q14-day schedule, first course): 14
Hyperglycemia: % (All Grades) ([1]; q14-day schedule, first course): 11%
Hyperglycemia: No. of Patients (All Grades) ([1]; q14-day schedule, first course): 3
Hypermagnesemia: % (All Grades) ([1]; q14-day schedule, first course): 7%
Lymphopenia: % (All Grades) ([1]; q14-day schedule, first course): 18%
Lymphopenia: No. of Patients (All Grades) ([1]; q14-day schedule, first course): 5
Middle ear infection: % (All Grades) ([1]; q14-day schedule, first course): 4%
Middle ear infection: Grade 3 ([1]; q14-day schedule, first course): 0
Middle ear infection: No. of Patients (All Grades) ([1]; q14-day schedule, first course): 1
Muscle weakness: % (All Grades) ([1]; q14-day schedule, first course): 4%
Muscle weakness: Grade 3 ([1]; q14-day schedule, first course): 0
Muscle weakness: No. of Patients (All Grades) ([1]; q14-day schedule, first course): 1
Myalgia: % (All Grades) ([1]; q14-day schedule, first course): 4%
Neutropenia: % (All Grades) ([1]; q14-day schedule, first course): 25%
Neutropenia: No. of Patients (All Grades) ([1]; q14-day schedule, first course): 7
Pain other: % (All Grades) ([1]; q14-day schedule, first course): 4%
Pain other: No. of Patients (All Grades) ([1]; q14-day schedule, first course): 1
Pleuretic pain: % (All Grades) ([1]; q14-day schedule, first course): 4%
Pleuretic pain: No. of Patients (All Grades) ([1]; q14-day schedule, first course): 1
Rhinitis: % (All Grades) ([1]; q14-day schedule, first course): 4%
Rhinitis: No. of Patients (All Grades) ([1]; q14-day schedule, first course): 1
Sinus Tachycardia: % (All Grades) ([1]; q14-day schedule, first course): 3%
Thrombooytopenia: % (All Grades) ([1]; q14-day schedule, first course): 36%
Thrombooytopenia: No. of Patients (All Grades) ([1]; q14-day schedule, first course): 10
Tremors: % (All Grades) ([1]; q14-day schedule, first course): 4%
Tremors: No. of Patients (All Grades) ([1]; q14-day schedule, first course): 1
Urinary electrolyte wasting: % (All Grades) ([1]; q14-day schedule, first course): 11%
Urinary electrolyte wasting: No. of Patients (All Grades) ([1]; q14-day schedule, first course): 3
Vomiting: % (All Grades) ([1]; q14-day schedule, first course): 39%
Vomiting: Grade 3 ([1]; q14-day schedule, first course): 4
Vomiting: No. of Patients (All Grades) ([1]; q14-day schedule, first course): 11
patients remaining on treatment for greater than 3 months ([2]; human, in vivo): Ten of 29
objective responses ([2]; q14-day schedule): not observed
patients with stable disease ([2]; q14-day schedule): 15

From patent US20130303575A1, “ADMINISTRATION OF AN INHIBITOR OF HDAC” (priority 2007, published 2013)
